Reference: patent US6451853B1, “Small molecules that elicit a polarized Th1 response and for modulation of cellular immunity” (Dovetail Technologies, Inc, priority 1998, dated 2002)
Where “and” joins values, the source holds several entries; their conditions need not be identical. Identical values can stand only once.

Key:
[1] = system: soluble TNF alpha release from human lymphocytes; assay: Soluble TNF alpha in supernatants by ELISA; settings: Media (unstimulated); drugs 20 mM; ELISA standard curve in pg/mL, unit not given
[2] = system: surface TNF alpha on human T cells; assay: Surface TNF alpha expression on T cells by FACS (gating on CD3+ cells); settings: for surface TNF alpha, overall MFI: 20 mM NAC without or with 20 mM BT; for surface TNF alpha expression, Time Course: each drug 20 mM; for TNF alpha in T cells, % Total / TNF alpha in T cells, MFI: marker All
[3] = system: surface TNF alpha on human monocytes; assay: Surface TNF alpha expression on monocytes by FACS (CD14+ cells); type: cell-based; settings: all drugs 20 mM
Text: The effect of NAC and BT, alone or in combination, on surface TNF alpha expression by stimulated or unstimulated monocytes (prepared from PBM) was examined. […] Table 6. While only a small proportion of T cells from each donor were responsive to the combination NAC/BT, the effect on surface TNF alpha expression in monocytes was significant.

MOLT-4 T cell line = assay: CD69 expression by flow cytometry, MOLT-4; type: cell-based
Experimental: (§1) CD69 Expression. CD69 expression was assessed by flow cytometry as described previously. […] CD69 is one of the earliest stimulation markers expressed on T cells upon activation (Testi et al., 1994). The cross-linking of this marker is believed to generate extracellular Ca++ influxes and activate phospholipase A2, and thus it is believed to be an integral part of the activation process (Testi et al., 1994).

PBMC = assay: CD69 expression by flow cytometry, PBMC T cells; type: cell-based; settings: for CD69 Expression, MFI of 10,000 events: PBMC
Experimental: as §1

Cloudman S-91 cells = assay: CTL lysis of Cloudman S-91 targets (CMFDA leakage); type: cell-based, DBA/2 mouse; settings: CTLs generated using 0.14 M Taurox-SB in addition to IL-6/IL-12; 10:1 effector:target, 16 hours
Experimental: The analysis was extended to include killing of the Cloudman S-91 targets used for the CTL generation. Cloudman S-91 cells (5×104) were loaded with chloromethylfluorescein diacetate (CMFDA) and incubated for 16 hours with CTLs generated from DBA/2 splenocytes at a 10:1 effector:target ratio. Lysis was detected by leakage of the CMFDA.

HUT-78 T cell line = assay: CD69 expression by flow cytometry, HUT-78; type: cell-based
Experimental: as §1

[4] = system: Cytokine mRNA from T cells (PBMC); assay: RNase protection assay of cytokine mRNA in PBMC (T cells), with or without PMA/ionomycin; settings: 6 hours, unit not given
human PBMCs [5] = assay: Cell cycle analysis; type: cell-based; settings: 18 and 24 hours of exposure
[6] = system: surface TNF alpha on human monocytes; assay: Surface TNF alpha expression on monocytes by FACS (CD14+ cells); type: cell-based; settings: for Monocyte TNF alpha surface expression, % Positive: fluorescence greater than isotype control peak
T cells = assay: Ca++ mobilization kinetics with fluo-3AM; type: cell-based; settings: final concentrations 0.14 mM to 1.4 mM; eight minute time period; data not shown
Experimental: The kinetics of Ca++ mobilization was observed using the dye fluo-3AM which is a membrane permeable Ca++ indicator which becomes increasingly fluorescent upon Ca++ binding. A baseline reading indicates the resting state of Ca++, followed by injection of Taurox-SB to yield final concentrations of 0.14 mM to 1.4 mM. […] PHA was added as a positive control for the elicitation of a Ca++ response (Greimers et al., 1996). […] (Data not shown.) The role of the second messenger response could be varied, as many proteins are activated by Ca++-regulated intracellular pathways. Second messengers may serve to enhance production of cytokines by immune cells.

human PBMCs [7] = assay: PBMC proliferation by 3H-thymidine incorporation; type: cell-based
Experimental: Treatment with 0.14 mM Taurox-SB increased proliferation of human PBMCs with and without PHA, as detected by incorporation of 3H-thymidine (Table 18).
Human PBMCs are obtained through collection of peripheral blood and isolation over Ficoll 1077. The cells are counted and 5×10^5 cells are plated in triplicate in 96 well plates in 100 μl of media (RPMI 1640, 20% FBS) containing specified conditions. These cells are then allowed to incubate for 48 hours. After this incubation 1 μCi of ^3H-Thymidine is added in a […] volume. The plates are incubated an additional 24 hours and harvested on a Tomtec plate harvester and the filtermat read in a scintillation counter. Many studies have been performed using the drugs in combination with PHA (T cell stimulant (mitogen)) obtained from Sigma.

[8] = air and aqueous solutions; cited from earlier work
[9] = Taurox-SB 14 nM, no stimulation
[10] = Taurox-SB 14 nM, with stimulation
[11] = Taurox-SB 1.4 uM, no stimulation
[12] = Taurox-SB 1.4 uM, with stimulation
[13] = Taurox-SB 1.4 mM, no stimulation
[14] = Taurox-SB 1.4 mM, with stimulation
[15] = With PMA + Ionomycin stimulation, 1.4 mM TSB, 16 hours
[16] = With PMA + Ionomycin stimulation, .14 mM TSB, 16 hours
[17] = Without stimulation, 1.4 mM TSB, 16 hours
[18] = Without stimulation, .14 mM TSB, 16 hours

Question: With `CC(=O)N[C@@H](CS)C(=O)O` [NAC, N-acetyl-L-cysteine, reference compound] as the molecule, how does the “Soluble TNF” value [1] read?
Answer: 15

Question: And the “surface TNF alpha, overall MFI” value ([2]; NAC + Stimulation (1 micromolar Ionomycin, 10 ng/ml PMA), individual donors)?
Answer: 25.32 and 31.12 and 95.45 and 53.48 and 17.39 and 12.59

Question: What about the “surface TNF alpha, overall MFI” value ([2]; NAC + Stimulation with 1 ng PMA) of the same molecule?
Answer: 11.31 and 12.76

Question: What about the “surface TNF alpha expression, Time Course” value ([2]; Pma/iono, 6 hours) of the same molecule?
Answer: 82

Question: And the “surface TNF alpha expression, Time Course” value ([2]; Pma/iono, 16 hours)?
Answer: 93

Question: And the “surface TNF alpha expression, Time Course” value ([2]; Pma/iono, 24 hours)?
Answer: 101

Question: What about the “surface TNF alpha expression, Time Course” value ([2]; Pma/iono, 42 hours) of the same molecule?
Answer: 113

Question: And the “surface TNF alpha expression, Time Course” value ([2]; Pma/iono, 68 hours)?
Answer: 80

Question: What about the “surface TNF alpha, overall MFI” value ([2]; no stimulation, individual donors) of the same molecule?
Answer: 24.7 and 6.96 and 17.49 and 6.34 and 6.68

Question: And the “surface TNF alpha expression, Time Course” value ([2]; unstimulated, 6 hours)?
Answer: 20

Question: And the “surface TNF alpha expression, Time Course” value ([2]; unstimulated, 16 hours)?
Answer: 33

Question: And the “surface TNF alpha expression, Time Course” value ([2]; unstimulated, 24 hours)?
Answer: 39

Question: What about the “surface TNF alpha expression, Time Course” value ([2]; unstimulated, 42 hours) of the same molecule?
Answer: 56

Question: What about the “surface TNF alpha expression, Time Course” value ([2]; unstimulated, 68 hours) of the same molecule?
Answer: 47

Question: What about the “surface TNF alpha expression” value ([3]; stimulated monocytes) of the same molecule?
Answer: relative ineffectiveness

Question: And the “surface TNF alpha expression” value ([3]; unstimulated monocytes)?
Answer: not upregulated

Question: With `O=C(CCNC(=O)OCc1ccccc1)NCCS(=O)(=O)O` [Taurox-SB, carbobenzoxy beta-alanyl taurine] as the molecule, how does the “CD69 Expression, MFI of 10,000 events” value (MOLT-4 T cell line; MOLT-4 + PHA, 1.4 mM) read?
Answer: 547

Question: And the “CD69 Expression, MFI of 10,000 events” value (MOLT-4 T cell line; MOLT-4, 1.4 mM)?
Answer: 208

Question: What about the “CD69 Expression, MFI of 10,000 events” value (PBMC; 1.4 mM) of the same molecule?
Answer: 7

Question: And the “CD69 Expression, MFI of 10,000 events” value (PBMC; 14 mM)?
Answer: 11

Question: What about the CD69 expression (PBMC; T cells, concentrations less than 1.4 mM) of the same molecule?
Answer: without effect

Question: What about the “lysis of Cloudman S-91 targets” value (Cloudman S-91 cells) of the same molecule?
Answer: 73%

Question: And the “CD69 Expression, MFI of 10,000 events” value (HUT-78 T cell line; HUT-78 + PHA, 1.4 mM)?
Answer: 409

Question: And the “CD69 Expression, MFI of 10,000 events” value (HUT-78 T cell line; HUT-78, 1.4 mM)?
Answer: 278

Question: And the “Effect on GAPDH message” value [4, 9]?
Answer: −20.94

Question: What about the “Effect on IFNg message” value [4, 9] of the same molecule?
Answer: 21.53

Question: And the “Effect on Ltb message” value [4, 9]?
Answer: 29.83

Question: And the “Effect on TGFb1 message” value [4, 9]?
Answer: 17.51

Question: And the “Effect on TNFa message” value [4, 9]?
Answer: 2.10

Question: What about the “Effect on TNFb message” value [4, 9] of the same molecule?
Answer: 62.96

Question: And the “Effect on GAPDH message” value [4, 10]?
Answer: −8.10

Question: And the “Effect on IFNg message” value [4, 10]?
Answer: −32.73

Question: And the “Effect on Ltb message” value [4, 10]?
Answer: 12.29

Question: What about the “Effect on TGFb1 message” value [4, 10] of the same molecule?
Answer: −10.25

Question: And the “Effect on TNFa message” value [4, 10]?
Answer: −15.96

Question: What about the “Effect on TNFb message” value [4, 10] of the same molecule?
Answer: 22.72

Question: What about the “Effect on GAPDH message” value [4, 11] of the same molecule?
Answer: −8.16

Question: What about the “Effect on IFNg message” value [4, 11] of the same molecule?
Answer: 16.76

Question: What about the “Effect on Ltb message” value [4, 11] of the same molecule?
Answer: 21.09

Question: And the “Effect on TGFb1 message” value [4, 11]?
Answer: 29.61

Question: And the “Effect on TNFa message” value [4, 11]?
Answer: 21.27

Question: And the “Effect on TNFb message” value [4, 11]?
Answer: 311.16

Question: And the “Effect on GAPDH message” value [4, 12]?
Answer: 4.88

Question: What about the “Effect on IFNg message” value [4, 12] of the same molecule?
Answer: −9.85

Question: And the “Effect on Ltb message” value [4, 12]?
Answer: 2.92

Question: What about the “Effect on TGFb1 message” value [4, 12] of the same molecule?
Answer: −0.09

Question: What about the “Effect on TNFa message” value [4, 12] of the same molecule?
Answer: 48.67

Question: And the “Effect on TNFb message” value [4, 12]?
Answer: 4.18

Question: What about the “Effect on GAPDH message” value [4, 13] of the same molecule?
Answer: 4.96 _

Question: And the “Effect on IFNg message” value [4, 13]?
Answer: 388.08

Question: And the “Effect on Ltb message” value [4, 13]?
Answer: 85.61

Question: What about the “Effect on TGFb1 message” value [4, 13] of the same molecule?
Answer: 36.89

Question: And the “Effect on TNFa message” value [4, 13]?
Answer: 461.93

Question: What about the “Effect on TNFb message” value [4, 13] of the same molecule?
Answer: 373.82

Question: What about the “Effect on GAPDH message” value [4, 14] of the same molecule?
Answer: −38.75

Question: What about the “Effect on IFNg message” value [4, 14] of the same molecule?
Answer: −64.90

Question: What about the “Effect on Ltb message” value [4, 14] of the same molecule?
Answer: 234.28

Question: And the “Effect on TGFb1 message” value [4, 14]?
Answer: −25.88

Question: And the “Effect on TNFa message” value [4, 14]?
Answer: −100.00

Question: And the “Effect on TNFb message” value [4, 14]?
Answer: 20.95

Question: And the “TNF alpha in T cells, % Total” value [2, 15]?
Answer: 88.89%

Question: What about the “TNF alpha in T cells, MFI” value [2, 15] of the same molecule?
Answer: 85.04

Question: What about the “TNF alpha in T cells, % Total” value [2, 16] of the same molecule?
Answer: 85.64%

Question: What about the “TNF alpha in T cells, MFI” value [2, 16] of the same molecule?
Answer: 169.68

Question: And the “TNF alpha in T cells, % Total” value [2, 17]?
Answer: 72.09%

Question: And the “TNF alpha in T cells, MFI” value [2, 17]?
Answer: 25.34

Question: And the “TNF alpha in T cells, % Total” value [2, 18]?
Answer: 78.07%

Question: What about the “TNF alpha in T cells, MFI” value [2, 18] of the same molecule?
Answer: 20.18

Question: What about the cell cycle distribution (human PBMCs [5]) of the same molecule?
Answer: increase in the proportion of cells in G2/M

Question: And the “Monocyte TNF alpha surface expression, % Positive” value ([6]; PMA/iono + Taurox-SB 1.4 mM)?
Answer: 59% and 53% and 57% and 36%

Question: What about the “Monocyte TNF alpha surface expression, % Positive” value ([6]; Taurox-SB 1.4 mM, no PMA/iono) of the same molecule?
Answer: 9% and 3%

Question: And the “Monocyte TNF alpha surface expression, MFI” value ([6]; Taurox-SB 1.4 mM, no PMA/iono, separate experiments)?
Answer: 19.91 and 16.68 and 10.95

Question: What about the “Ca++ mobilization” value (T cells) of the same molecule?
Answer: rising or sustained

Question: What about the “PBMC Proliferation, mean cpm ± SD” value (human PBMCs [7]; 0.14 mM, No PHA) of the same molecule?
Answer: 2964 ± 684 cpm

Question: What about the “PBMC Proliferation, mean cpm ± SD” value (human PBMCs [7]; 0.14 mM, PHA 10 μg/ml) of the same molecule?
Answer: 5538 ± 597 cpm

Question: And the viability (human PBMCs [7]; 1.4 mM)?
Answer: slight reduction in viability

Question: What about the “PBMC Proliferation, mean cpm ± SD” value (human PBMCs [7]; .014 mM, No PHA) of the same molecule?
Answer: 1346 ± 70 cpm

Question: And the “PBMC Proliferation, mean cpm ± SD” value (human PBMCs [7]; .014 mM, PHA 10 μg/ml)?
Answer: 4794 ± 652 cpm

Question: With `NCCC(=O)NCCS` [beta-aletheine] as the molecule, how does the stability [8] read?
Answer: unstable in air and aqueous solutions
